Laboratory results published in ChEMBL document CHEMBL1151544, “Biarylcarboxamide inhibitors of phosphodiesterase IV and tumor necrosis factor-” (Bioorg Med Chem Lett, 1997).
pIC50: −log10 of the molar value.

Columns and labels:
[1] = Ability to block the release of TNF-alpha in human monocytes; assay type: functional, cell-based
[2] = species: Homo sapiens; assay: Ability to block the release of TNF-alpha in human whole blood; assay type: functional
[3] = target: Phosphodiesterase 4 (Homo sapiens, UniProt P27815+Q08499+Q07343+Q08493); assay: Tested for its ability to inhibit the hydrolysis of cAMP by human monocyte cytosol phosphodiesterase; assay type: protein assay
[4] = test system: U-937; assay: Ability to elevate intracellular levels of cAMP in human U937 cells; assay type: functional, cell-based
[5] = test system: Mus musculus; assay: Inhibition of LPS stimulated TNF-alpha release in mice at 1 mg/kg; assay type: functional
[6] = test system: Mus musculus; assay: Inhibition of LPS stimulated TNF-alpha release in mice at 10 mg/kg; assay type: functional

| pIC50 [1] | pIC50 [4] | SMILES | also measured |
| --- | --- | --- | --- |
| 6.72 |  | COc1ccc(-c2ccc(C(N)=O)c(C)c2)cc1OC1CCCC1 |  |
| 7.62 | 7.66 | COc1ccc(-c2ccc(C(N)=O)cc2)cc1O[C@H]1CC2CCC1C2 (stereo not given in full) | pIC50 [2]: 6.74; IC50 [3]: 3.61 µM |
| 6.44 |  | COc1ccc(-c2ncc(C(N)=O)cc2Cl)cc1OC1CCCC1 |  |
| 7.59 | 7.09 | COc1ccc(-c2ccc(C(N)=O)cc2)cc1OC1CCCC1 | pIC50 [2]: 6.35; IC50 [3]: 5.91 µM |
| 6.59 |  | COc1ccc(-c2ccc(C(N)=O)cc2Cl)cc1OC1CCCC1 |  |
| 8.05 | 7.31 | COc1ccc(-c2ccc(C(N)=O)nc2)cc1O[C@H]1CC2CCC1C2 (stereo not given in full) | pIC50 [2]: 6.85; IC50 [3]: 1.07 µM |
| 6.49 |  | COc1ccc(-c2ccc(C(N)=O)cc2)cc1OC1Cc2ccccc2C1 |  |
| 6.85 |  | COc1ccc(-c2ccc(C(=O)O)cc2)cc1O[C@H]1CC2CCC1C2 (stereo not given in full) |  |
| 7.10 |  | COc1ccc(-c2ccc(C(N)=O)cn2)cc1OC1CCCC1 |  |
| 6.74 |  | COc1ccc(-c2ccc(C(N)=O)nc2)cc1OCCc1ccccc1 |  |
| 5.64 |  | COc1ccc(-c2ccc(C(N)=O)nc2)cc1OCCCc1ccccc1 |  |
| 7.09 |  | COc1ccc(-c2ccc(C(N)=O)c(Cl)c2)cc1OC1CCCC1 |  |
| 7.43 | 7.34 | COc1ccc(-c2ccc(C(N)=O)nc2)cc1OC1CCCC1 | pIC50 [2]: 6.74; inhibition in vivo at 1 mg/kg [5]: 65.2%; IC50 [3]: 0.34 µM |
| 6.92 |  | COc1ccc(-c2ccc(C(N)=O)nc2)cc1OC1Cc2ccccc2C1 |  |
| 5.93 |  | COc1ccc(-c2ccc(C(N)=O)c(C(F)(F)F)c2)cc1OC1CCCC1 |  |
| 6.54 | 5.44 | COc1ccc([C@]2(C#N)CC[C@@H](C(=O)O)CC2)cc1OC1CCCC1 [CILOMILAST] | pIC50 [2]: 5.21; inhibition in vivo at 10 mg/kg [6]: 59.4% |
| 6.51 | 5.91 | COc1ccc(C2CNC(=O)C2)cc1OC1CCCC1 (stereo not given) [ROLIPRAM] | inhibition in vivo at 1 mg/kg [5]: 68% |
